Experimental data from patent publication US20250034110A1, “LPAR1 ANTAGONISTS AND USES THEREOF” (Pipeline Therapeutics, Inc., priority 2021, published 2025).
Read-outs that look alike come from different tables or passages of the source.

Molecular target: human LPAR1 (Homo sapiens, UniProt Q92633)
Assay: In vitro functional assay of lysophosphatidic acid receptor 1 activity (calcium flux)
Assay type: cell-based
[1] = B103 cells stably expressing human LPAR1, calcium flux (Fluo-4 NW) after lysophosphatidic acid (18:1) at EC80, 100 pM to 10 μM, read-out: LPAR1 IC50

Chain of human LPAR1 (Q92633 whole entry): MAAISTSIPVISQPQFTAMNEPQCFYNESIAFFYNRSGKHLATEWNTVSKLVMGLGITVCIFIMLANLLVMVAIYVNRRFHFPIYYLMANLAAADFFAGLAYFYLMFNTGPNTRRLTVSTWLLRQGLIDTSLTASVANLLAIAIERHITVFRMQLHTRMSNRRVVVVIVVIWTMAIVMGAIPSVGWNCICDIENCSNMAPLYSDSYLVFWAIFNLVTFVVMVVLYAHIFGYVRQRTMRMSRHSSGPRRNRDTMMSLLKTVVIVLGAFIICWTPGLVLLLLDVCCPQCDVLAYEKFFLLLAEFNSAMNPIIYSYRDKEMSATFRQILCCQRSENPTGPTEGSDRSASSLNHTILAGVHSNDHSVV

COc1ccc(NC(=O)N(c2ccccc2C(C)C)C2CCN(C(=O)CC#N)CC2)c(OC(F)F)n1 [Example 85, 1-(1-(2-cyanoacetyl)piperidin-4-yl)-3-(2-(difluoromethoxy)-6-methoxypyridin-3-yl)-1-(2-isopropylphenyl)urea] showed an IC50 (LPAR1 IC50) of 10 to 100 nM.

Compound COc1ccc(NC(=O)N(c2ccccc2C(C)C)C2CCN(C(C)=O)CC2)c(OC(F)F)n1 [Example 86, 1-(1-acetylpiperidin-4-yl)-3-(2-(difluoromethoxy)-6-methoxypyridin-3-yl)-1-(2-isopropylphenyl)urea] has an IC50 (LPAR1 IC50) of 10 to 100 nM.

With CC(=O)N1CCC(N(C(=O)Nc2ccc(C(F)(F)F)nc2C)c2ccccc2C(C)C)CC1 [Example 88] the IC50 (LPAR1 IC50) was > 1000 nM.

In the case of CC(=O)N1CCC(N(C(=O)Nc2cccnc2OC(F)F)c2ccccc2C(C)C)CC1 [Example 91], the IC50 (LPAR1 IC50) is reported as 10 to 100 nM.

Compound CC(=O)N1CCC(N(C(=O)Nc2ccc(C)nc2OCC(F)(F)F)c2ccccc2C(C)C)CC1 [Example 104] has an IC50 (LPAR1 IC50) of 100 to 1000 nM.

Compound CCOc1nc(C)ccc1NC(=O)N(c1ccccc1C(C)C)C1CCN(C(C)=O)CC1 [Example 105] has an IC50 (LPAR1 IC50) of 100 to 1000 nM.

In the case of COc1ccc(NC(=O)N(c2ccccc2C(C)C)C2CCN(C(C)=O)CC2)c(OCC(F)F)n1 [Example 106], the IC50 (LPAR1 IC50) is reported as 10 to 100 nM.

With CCOc1ccc(NC(=O)N(c2ccccc2C(C)C)C2CCN(C(C)=O)CC2)c(OC(F)F)n1 [Example 107] the IC50 (LPAR1 IC50) was 10 to 100 nM.

With CC(=O)N1CCC(N(C(=O)Nc2ccc(OC(F)F)nc2Cl)c2ccccc2C(C)C)CC1 [Example 108] the IC50 (LPAR1 IC50) was 100 to 1000 nM.

With COc1nc(C(F)F)ccc1NC(=O)N(c1ccccc1C(C)C)C1CCN(C(C)=O)CC1 [Example 113] the IC50 (LPAR1 IC50) was 10 to 100 nM.

CC(=O)N1CCC(N(C(=O)Nc2ccc(C(F)F)nc2OC(F)F)c2ccccc2C(C)C)CC1 [Example 115] showed an IC50 (LPAR1 IC50) of 10 to 100 nM.

CC(=O)N1CC(N(C(=O)Nc2ccc(C)cc2OC(F)F)c2ccccc2C(C)C)C1 [Example 117, 1-(1-acetylazetidin-3-yl)-3-(2-(difluoromethoxy)-4-methylphenyl)-1-(2-isopropylphenyl)urea] was tested, and the IC50 [1] was 10 to 100 nM.

Compound COc1ccc(NC(=O)N(c2ccccc2C(C)C)C2CN(C(C)=O)C2)c(OC)n1 [Example 118] has an IC50 [1] of 100 to 1000 nM.

For COc1ccc(NC(=O)N(c2ccccc2C(C)C)C2CN(C(C)=O)C2)c(OC)c1C [Example 119], the IC50 [1] was 100 to 1000 nM.

In the case of CC(=O)N1CC(N(C(=O)Nc2ncc(Cl)cc2OC(F)F)c2ccccc2C(C)C)C1 [Example 120], the IC50 [1] is reported as 100 to 1000 nM.

Compound CC(=O)N1CC2(CC(N(C(=O)Nc3ncc(Br)cc3OC(F)F)c3ccccc3C(C)C)C2)C1 [Example 123, 1-(2-acetyl-2-azaspiro[3.3]heptan-6-yl)-3-(5-bromo-3-(difluoromethoxy)pyridin-2-yl)-1-(2-isopropylphenyl)urea] has an IC50 [1] of 100 to 1000 nM.

CC(=O)N1CC2(CC(N(C(=O)Nc3ncc(Cl)cc3OC(F)F)c3ccccc3C(C)C)C2)C1 [Example 124] showed an IC50 [1] of 100 to 1000 nM.

CC(=O)N1CC2(CC(N(C(=O)Nc3ccc(C)cc3OC(F)F)c3ccccc3C(C)C)C2)C1 [Example 125, 1-(2-acetyl-2-azaspiro[3.3]heptan-6-yl)-3-(2-(difluoromethoxy)-4-methylphenyl)-1-(2-isopropylphenyl)urea] showed an IC50 [1] of 10 to 100 nM.

Cc1ccc(NC(=O)N(c2ccccc2C(C)C)C2CC3(C2)CN(C(=O)NC2CC2)C3)c(OC(F)F)c1 [Example 126] was tested, and the IC50 [1] was 10 to 100 nM.

Work on Cc1ccc(NC(=O)N(c2ccccc2C(C)C)C2CN(S(N)(=O)=O)C2)c(OC(F)F)n1 [Example 127, 3-(3-(2-(difluoromethoxy)-6-methylpyridin-3-yl)-1-(2-isopropylphenyl)ureido)azetidine-1-sulfonamide] yielded an IC50 [1] of 10 to 100 nM.

Compound Cc1ccc(NC(=O)N(c2ccccc2C(C)C)C2CC3(C2)CN(S(N)(=O)=O)C3)c(OC(F)F)c1 [Example 128] has an IC50 [1] of 10 to 100 nM.

CC(=O)N1CCC(N(C(=O)Nc2ncc(Br)cc2OC(F)F)c2ccccc2C(C)C)CC1 [Example 129, 1-(1-acetylpiperidin-4-yl)-3-(5-bromo-3-(difluoromethoxy)pyridin-2-yl)-1-(2-isopropylphenyl)urea] showed an IC50 (LPAR1 IC50) of 10 to 100 nM.

In the case of CC(=O)N1CCC(N(C(=O)Nc2cnccn2)c2ccccc2C(C)C)CC1 [Example 130], the IC50 (LPAR1 IC50) is reported as > 1000 nM.

In the case of CC(=O)N1CCC(N(C(=O)Nc2cnc(C)cn2)c2ccccc2C(C)C)CC1 [Example 131], the IC50 (LPAR1 IC50) is reported as 100 to 1000 nM.

For CC(=O)N1CCC(N(C(=O)Nc2cnc(C(F)(F)F)cn2)c2ccccc2C(C)C)CC1 [Example 132], the IC50 (LPAR1 IC50) was > 1000 nM.

For CC(=O)N1CCC(N(C(=O)Nc2ncc(F)cc2Br)c2ccccc2C(C)C)CC1 [Example 137], the IC50 (LPAR1 IC50) was > 1000 nM.

CC(=O)N1CCC(N(C(=O)Nc2ncc(C(F)(F)F)cc2Br)c2ccccc2C(C)C)CC1 [Example 139] was tested, and the IC50 (LPAR1 IC50) was > 1000 nM.

Work on CC(=O)N1CCC(N(C(=O)Nc2ncc(Br)cc2C=O)c2ccccc2C(C)C)CC1 [Example 140] yielded an IC50 (LPAR1 IC50) of 100 to 1000 nM.

With CC(=O)N1CCC(N(C(=O)Nc2ncc(Br)cc2OC(F)F)c2ncccc2C(C)C)CC1 [Example 142] the IC50 (LPAR1 IC50) was > 1000 nM.

CC(=O)N1CCC(N(C(=O)Nc2ccc(C)cn2)c2ccccc2C(C)C)CC1 [Example 143, 1-(1-acetylpiperidin-4-yl)-1-(2-isopropylphenyl)-3-(5-methylpyridin-2-yl)urea] was tested, and the IC50 (LPAR1 IC50) was > 1000 nM.

With COc1ccc(NC(=O)N(c2ccccc2C(C)C)[C@H]2CC[C@H](C(=O)O)CC2)c(OC(F)F)n1 [Example 144, trans-4-(3-(2-(difluoromethoxy)-6-methoxypyridin-3-yl)-1-(2-isopropylphenyl)ureido)cyclohexane-1-carboxylic acid] the IC50 [1] was 10 to 100 nM.

In the case of COc1ccc(NC(=O)N(c2ccccc2C(C)C)[C@H]2CC[C@@H](C(=O)O)CC2)c(OC(F)F)n1 [Example 145], the IC50 [1] is reported as 100 to 1000 nM.

COc1ccc(NC(=O)N(c2ccccc2C(C)C)[C@H]2CCC[C@H](C(=O)O)C2)c(OC(F)F)n1 [Example 146] showed an IC50 [1] of 10 to 100 nM.

In the case of COc1ccc(NC(=O)N(c2ccccc2C(C)C)[C@H]2CCC[C@@H](C(=O)O)C2)c(OC(F)F)n1 [Example 147], the IC50 [1] is reported as < 10 nM.

For COc1ccc(NC(=O)N(c2ccccc2C(C)C)C2CC(CC(=O)O)C2)c(OC(F)F)n1 (centres unmarked) [Example 148], the IC50 [1] was < 10 nM.

For COc1ccc(NC(=O)N(c2ccccc2C(C)C)[C@H]2C[C@@]3(C[C@@H]3C(=O)O)C2)c(OC(F)F)n1 [Example 149], the IC50 [1] was 10 to 100 nM.

In the case of COc1ccc(NC(=O)N(c2ccccc2C(C)C)[C@H]2C[C@]3(C[C@H]3C(=O)O)C2)c(OC(F)F)n1 [Example 150], the IC50 [1] is reported as < 10 nM.

COc1ccc(NC(=O)N(c2ccccc2C(C)C)[C@H]2C[C@H](C(=O)O)C2)c(OC(F)F)n1 [Example 151] was tested, and the IC50 [1] was 10 to 100 nM.

With COc1ccc(NC(=O)N(c2ccccc2C(C)C)[C@H]2C[C@@H](C(=O)O)C2)c(OC(F)F)n1 [Example 152] the IC50 [1] was 100 to 1000 nM.

In the case of Cc1ccc(NC(=O)N(c2ccccc2C(C)C)[C@H]2CC[C@H](C(=O)O)CC2)c(OC(F)F)n1 [Example 155, trans-4-(3-(2-(difluoromethoxy)-6-methylpyridin-3-yl)-1-(2-isopropylphenyl)ureido)cyclohexane-1-carboxylic acid], the IC50 [1] is reported as 10 to 100 nM.

In the case of [2H]C([2H])([2H])c1ccc(NC(=O)N(c2ccccc2C(C)C)[C@H]2CC[C@H](C(=O)O)CC2)c(OC(F)F)n1 [Example 156, trans-4-(3-(2-(difluoromethoxy)-6-(methyl-d3)pyridin-3-yl)-1-(2-isopropylphenyl)ureido)cyclohexane-1-carboxylic acid], the IC50 [1] is reported as < 10 nM.
